Earlier results, collected in patent EP0611214A2, “Acidic composition and process of using same” (MINNESOTA MINING AND MANUFACTURING COMPANY, priority 1993, dated 1994).

Details: in water, as reported in U.S. Pat. No. 5,080,822, column 4

In order of rising “aqueous ambient temperature solubility in weight percent” value:
1. CC(=O)c1ccccc1 [acetophenone]  0.5 weight percent
2. CC(O)COc1ccccc1 (centres unmarked) [1-phenoxy-2-propanol]  1.1 weight percent
3. OCCc1ccccc1 [8-phenylethanol]  1.6 weight percent
4. OCCOc1ccccc1 [2-phenoxyethanol]  2.3 weight percent
5. OCc1ccccc1 [benzyl alcohol]  4.4 weight percent
